The values below come from US20170152226A1, “FUNCTIONALISED AND SUBSTITUTED INDOLES AS ANTI-CANCER AGENTS” (Novogen Ltd., priority 2014, published 2017).

Common to all, as to assay: Anti-proliferative activity, cell-titre luminescent viability assay
Common to all, as to assay type: cell-based

The subject of assay [1] is DU145. The following applies: Homo sapiens, read-out: IC50 Prostate DU145. The method, then:
(§1) The ability of compounds 3501-3540 and 3542-3545 to inhibit the proliferation of cancer cells representative of neuroblastoma, melanoma, prostate cancer, colorectal cancer, non-small cell lung carcinoma, and triple negative breast cancer was assessed. Briefly, a pre-determined number of cells as calculated from cell growth assays for each of the cell lines employed were seeded into their respective culture medium (using ATCC culture parameters—http://www.atcc.org) and cultured for 24 hours at 37° C. and 5% CO2 in 96-well culture plates. Once attached, each cell line was then exposed to increasing concentrations of each respective analogue (0.03, 0.3, 3 and 30 μM for compounds in Table 1; 0.1, 0.3, 1, 3, 10 and 30 μM for compounds in Table 2), cultured for a further 72 hours and exposed to cell-titre luminescent reagent (100 μL/well) for a further 30 min) to assess for cell viability. Luminescence was captured using an EnVision multilabel reader and the data for each analogue concentration was normalized, as a percentage, to the no treatment control. For compounds 3501, 3503, 3505-08, 3512-18, 3520, 3522-24 and 3531-36, semi-log plots of Percent of Control versus concentration were prepared and IC50 determined using linear regression analysis. For compounds 3502, 3504, 3509-11, 3519, 3521, 3525-30, 3537-40 and 3542-45, cell viability was normalized to control (vehicle alone) and dose-response curves, and half maximal effective concentration (EC50) values were determined using Graph Pad Prism 6 (nonlinear regression sigmoidal dose-response variable slope).

For assay [2], the system named is SK-N-SH. As to conditions: Homo sapiens, SK-N-SH, read-out: IC50 Neuroblastoma SK-N-SH. As to the method:
as §1

Assay [3] deals with PC3. As to conditions: Homo sapiens, read-out: IC50 Prostate PC3. As to the method: as §1
Assay [4] has as its system CaCo2. As to conditions: Homo sapiens, read-out: IC50 Colorectal CaCo2. As to the method:
as §1

For assay [5], the system named is SK-Mel-28. As to conditions: Homo sapiens, SK-MEL-28, 72 hours, read-out: IC50 Melanoma SK-Mel-28. The method, then:
as §1

The test system of assay [6] is MDA-MB-231. The following applies: Homo sapiens, read-out: IC50 Breast MDA-MB-231. The method, then: as §1
The test system of assay [7] is A549. As to conditions: Homo sapiens, read-out: IC50 Lung (NSLC) A549. As to the method:
as §1

Setting [8] is: DU-145, 72 h, 0.03, 0.3, 3 and 30 μM, linear regression of semi-log plots.
Setting [9] is: 72 h, 0.03, 0.3, 3 and 30 μM, linear regression of semi-log plots.
Setting [10] is: PC-3, 72 h, 0.03, 0.3, 3 and 30 μM, linear regression of semi-log plots.
[11] abbreviates: Caco-2, 72 h, 0.03, 0.3, 3 and 30 μM, linear regression of semi-log plots.
[12] abbreviates: 0.03, 0.3, 3 and 30 μM, linear regression of semi-log plots.
[13] abbreviates: MDA-MB-231, 72 h, 0.03, 0.3, 3 and 30 μM, linear regression of semi-log plots.
Where [14] appears, read: A549, 72 h, 0.03, 0.3, 3 and 30 μM, linear regression of semi-log plots.
[15] abbreviates: DU-145, 72 h, 0.1, 0.3, 1, 3, 10 and 30 μM, nonlinear regression sigmoidal dose-response (EC50).
The mark [16] stands for this setting: 72 h, 0.1, 0.3, 1, 3, 10 and 30 μM, nonlinear regression sigmoidal dose-response (EC50).
Where [17] appears, read: PC-3, 72 h, 0.1, 0.3, 1, 3, 10 and 30 μM, nonlinear regression sigmoidal dose-response (EC50).
Setting [18] is: Caco-2, 72 h, 0.1, 0.3, 1, 3, 10 and 30 μM, nonlinear regression sigmoidal dose-response (EC50).
The mark [19] stands for this setting: 0.1, 0.3, 1, 3, 10 and 30 μM, nonlinear regression sigmoidal dose-response (EC50).
Where [20] appears, read: MDA-MB-231, 72 h, 0.1, 0.3, 1, 3, 10 and 30 μM, nonlinear regression sigmoidal dose-response (EC50).
The mark [21] stands for this setting: A549, 72 h, 0.1, 0.3, 1, 3, 10 and 30 μM, nonlinear regression sigmoidal dose-response (EC50).

Where two headings read alike, the source gives them in different places.

Broadly, the IC50 is the concentration at which inhibition is half-maximal.

In the case of `Cc1c(C)n(CCCN2CCN(C)CC2)c2ccc(Nc3cccc(C(=O)N4CCN(CCc5ccc6c(c5)OCO6)CC4)c3)cc12` [Compound 3515, (4-(2-(benzo[d][1,3]dioxol-5-yl)ethyl)piperazin-1-yl)(3-((2,3-dimethyl-1-(3-(4-methylpiperazin-1-yl)propyl)-1H-indol-5-yl)amino)phenyl)methanone], the IC50 in assay [1] (setting [8]) was 4 µM; in assay [2] (setting [9]), 3400 nM; in assay [3] (setting [10]), 4.9 µM; in assay [4] (setting [11]), 4.6 µM; in assay [5] (setting [12]), 2700 nM; in assay [6] (setting [13]) it was 3.3 µM. Besides, the 50% inhibitory concentration (IC50) in assay [7] (setting [14]) turned out to be 4.3 µM.

For `COc1cccc(CCN2CCN(C(=O)c3cccc(Nc4ccc5c(c4)c(C)c(C)n5CCCN4CCN(C)CC4)c3)CC2)c1` [Compound 3517, (3-((2,3-dimethyl-1-(3-(4-methylpiperazin-1-yl)propyl)-1H-indol-5-yl)amino)phenyl)(4-(3-methoxyphenethyl)piperazin-1-yl)methanone], the concentration for half-maximal inhibition (IC50) in assay [1] (setting [8]) was 7.1 µM; in assay [2] (setting [9]), 4500 nM; in assay [3] (setting [10]), 21.1 µM; in assay [4] (setting [11]) it was above 30 µM; in assay [5] (setting [12]), 3700 nM; in assay [6] (setting [13]), 5.3 µM. In assay [7] (setting [14]), the IC50 was 4.4 µM.

Regarding `Cc1c(C)n(CCCN2CCN(C)CC2)c2ccc(Nc3cccc(C(=O)N4CCN(CCc5ccccc5)CC4)c3)cc12` [Compound 3518, (3-((2,3-dimethyl-1-(3-(4-methylpiperazin-1-yl)propyl)-1H-indol-5-yl)amino)phenyl)(4-phenethylpiperazin-1-yl)methanone], the IC50 in assay [1] (setting [8]) turned out to be 3.2 µM; in assay [2] (setting [9]), 2300 nM; in assay [3] (setting [10]), 4.1 µM; in assay [4] (setting [11]), 2.5 µM; in assay [5] (setting [12]), 2400 nM; in assay [6] (setting [13]) it was 2.1 µM. Moreover, the IC50 in assay [7] (setting [14]) came to 3 µM.

As to `Cc1c(C)n(CCCN2CCN(C)CC2)c2ccc(Cc3ccc(C(=O)N4CCN(CCc5ccc(F)cc5)CC4)cc3)cc12` [Compound 3519, (4-((2,3-dimethyl-1-(3-(4-methylpiperazin-1-yl)propyl)-1H-indol-5-yl)methyl)phenyl)(4-(4-fluorophenethyl)piperazin-1-yl)methanone], the half-inhibitory concentration (IC50) came out at 4.3 µM in assay [1] (setting [15]); 2600 nM in assay [2] (setting [16]); 4.9 µM in assay [3] (setting [17]); 5.6 µM in assay [4] (setting [18]); 2500 nM in assay [5] (setting [19]); 5 µM in assay [6] (setting [20]). Further, in assay [7] (setting [21]), the concentration for half-maximal inhibition (IC50) is 4.4 µM.

With `Cc1c(C)n(CCCN2CCN(C)CC2)c2ccc(Cc3ccc(C(=O)N4CCN(CCc5ccc6c(c5)OCO6)CC4)cc3)cc12` [Compound 3521, (4-(2-(benzo[d][1,3]dioxol-5-yl)ethyl)piperazin-1-yl)(4-((2,3-dimethyl-1-(3-(4-methylpiperazin-1-yl)propyl)-1H-indol-5-yl)methyl)phenyl)methanone], the IC50 turned out to be 5.7 µM in assay [1] (setting [15]); 4200 nM in assay [2] (setting [16]); 6.3 µM in assay [3] (setting [17]); 6 µM in assay [4] (setting [18]); 4100 nM in assay [5] (setting [19]); 6.6 µM in assay [6] (setting [20]). Besides, the half-maximal inhibitory concentration (IC50) in assay [7] (setting [21]) amounted to 5.9 µM.

As to `Cc1c(C)n(CCCN2CCN(C)CC2)c2ccc(Cc3ccc(C(=O)N4CCN(CCc5cccc(F)c5)CC4)cc3)cc12` [Compound 3522, (4-((2,3-dimethyl-1-(3-(4-methylpiperazin-1-yl)propyl)-1H-indol-5-yl)methyl)phenyl)(4-(3-fluorophenethyl)piperazin-1-yl)methanone], the half-inhibitory concentration (IC50) was 2.4 µM in assay [1] (setting [8]); 2000 nM in assay [2] (setting [9]); 2.5 µM in assay [3] (setting [10]); 3 µM in assay [4] (setting [11]); 1000 nM in assay [5] (setting [12]); 1.3 µM in assay [6] (setting [13]). Further, the IC50 in assay [7] (setting [14]) was 1.6 µM.

`COc1cccc(CCN2CCN(C(=O)c3ccc(Cc4ccc5c(c4)c(C)c(C)n5CCCN4CCN(C)CC4)cc3)CC2)c1` [Compound 3523, (4-((2,3-dimethyl-1-(3-(4-methylpiperazin-1-yl)propyl)-1H-indol-5-yl)methyl)phenyl)(4-(3-methoxyphenethyl)piperazin-1-yl)methanone]: the 50% inhibitory concentration (IC50) in assay [1] (setting [8]) came to 2.1 µM; in assay [2] (setting [9]) it was 2100 nM; in assay [3] (setting [10]), 2.4 µM; in assay [4] (setting [11]), 3.1 µM; in assay [5] (setting [12]), 800 nM; in assay [6] (setting [13]), 1.1 µM. For the same compound, the IC50 in assay [7] (setting [14]) stood at 1.4 µM.

With `Cc1c(C)n(CCCN2CCN(C)CC2)c2ccc(Cc3ccc(C(=O)N4CCN(CCc5ccccc5)CC4)cc3)cc12` [Compound 3524, (4-((2,3-dimethyl-1-(3-(4-methylpiperazin-1-yl)propyl)-1H-indol-5-yl)methyl)phenyl)(4-phenethylpiperazin-1-yl)methanone], the IC50 amounted to 1.8 µM in assay [1] (setting [8]); 1400 nM in assay [2] (setting [9]); 0.9 µM in assay [3] (setting [10]); 1.7 µM in assay [4] (setting [11]); 1100 nM in assay [5] (setting [12]); 1.1 µM in assay [6] (setting [13]). Also, the IC50 in assay [7] (setting [14]) was found to be 0.9 µM.

Take `Cc1c(C)n(CCCN2CCN(C)CC2)c2ccc(Oc3ccc(C(=O)N4CCN(CCc5ccc(F)cc5)CC4)cc3)cc12` [Compound 3525, (4-((2,3-dimethyl-1-(3-(4-methylpiperazin-1-yl)propyl)-1H-indol-5-yl)oxy)phenyl)(4-(4-fluorophenethyl)piperazin-1-yl)methanone]: the IC50 in assay [1] (setting [15]) amounted to 4.1 µM; in assay [2] (setting [16]), 1900 nM; in assay [3] (setting [17]), 4.5 µM; in assay [4] (setting [18]) it was 4.1 µM; in assay [5] (setting [19]), 1700 nM; in assay [6] (setting [20]), 4.3 µM. The IC50 in assay [7] (setting [21]) was 3.8 µM.

For `COc1ccc(CCN2CCN(C(=O)c3ccc(Oc4ccc5c(c4)c(C)c(C)n5CCCN4CCN(C)CC4)cc3)CC2)cc1` [Compound 3526], the half-maximal inhibitory concentration (IC50) is 9 µM in assay [1] (setting [15]); 4800 nM in assay [2] (setting [16]); 15.6 µM in assay [3] (setting [17]); 5.3 µM in assay [4] (setting [18]); 4800 nM in assay [5] (setting [19]); 13.4 µM in assay [6] (setting [20]). For the same compound, the 50% inhibitory concentration (IC50) in assay [7] (setting [21]) is 3 µM.

For `Cc1c(C)n(CCCN2CCN(C)CC2)c2ccc(Oc3ccc(C(=O)N4CCN(CCc5ccc6c(c5)OCO6)CC4)cc3)cc12` [Compound 3527, (4-(2-(benzo[d][1,3]dioxol-5-yl)ethyl)piperazin-1-yl)(4-((2,3-dimethyl-1-(3-(4-methylpiperazin-1-yl)propyl)-1H-indol-5-yl)oxy)phenyl)methanone], the half-maximal inhibitory concentration (IC50) in assay [1] (setting [15]) was found to be 4.5 µM; in assay [2] (setting [16]), 3200 nM; in assay [3] (setting [17]) it was 7.2 µM; in assay [4] (setting [18]), 4.1 µM; in assay [5] (setting [19]) it was 4100 nM; in assay [6] (setting [20]) it was 4.8 µM. Moreover, the IC50 in assay [7] (setting [21]) is 5 µM.

As to `Cc1c(C)n(CCCN2CCN(C)CC2)c2ccc(Oc3ccc(C(=O)N4CCN(CCc5cccc(F)c5)CC4)cc3)cc12` [Compound 3528], the half-inhibitory concentration (IC50) in assay [1] (setting [15]) was found to be 5.2 µM; in assay [2] (setting [16]), 4300 nM; in assay [3] (setting [17]) it was 7.3 µM; in assay [4] (setting [18]) it was 4.6 µM; in assay [5] (setting [19]), 3800 nM; in assay [6] (setting [20]), 5.9 µM. For the same compound, the half-maximal inhibitory concentration (IC50) in assay [7] (setting [21]) was 6.6 µM.

For the compound `COc1cccc(CCN2CCN(C(=O)c3ccc(Oc4ccc5c(c4)c(C)c(C)n5CCCN4CCN(C)CC4)cc3)CC2)c1` [Compound 3529], the IC50 in assay [1] (setting [15]) was 4.2 µM; in assay [2] (setting [16]), 2000 nM; in assay [3] (setting [17]), 4.8 µM; in assay [4] (setting [18]) it was 4.2 µM; in assay [5] (setting [19]), 2400 nM; in assay [6] (setting [20]) it was 4.5 µM. Also, the IC50 in assay [7] (setting [21]) turned out to be 4.4 µM.
